The record followed here is patent US6586604B2, “Tricyclic amine derivatives” (Daiichi Pharmaceutical Co., Ltd., priority 1996, dated 2003).

≈ marks a conversion by molar mass, not a printed value.

For data set [1], the system named is Ps. Aeruginosa, 32121. Description: Antimicrobial activity (MIC), standard method of the Japan Chemotherapeutic Society. To be noted: for MIC: Pseudomonas aeruginosa, read-out: minimum inhibitory concentration (MIC). The class given is cell-based. How it is done:
(§1) The antimicrobial activity of the compounds according to the present invention was determined in accordance with the standard method specified by the Japan Chemotherapeutic Society.

Data set [2] deals with Str. Pyogenes, G-36. Described as above. The class given is cell-based. Conditions: for MIC: Streptococcus pyogenes, read-out: minimum inhibitory concentration (MIC). How it is done: as §1
For data set [3], the system named is Pr. vulgaris, 08601. Described as above. Conditions: for MIC: Proteus vulgaris, read-out: minimum inhibitory concentration (MIC). The class given is cell-based. The method, then:
as §1

Data set [4] has as its system S. aureus, 870307. Described as above. The class given is cell-based. Conditions: for MIC: Staphylococcus aureus, read-out: minimum inhibitory concentration (MIC). The method, then:
as §1

Data set [5] deals with S. aureaus, 209P. Described as above. The class given is cell-based. Conditions: for MIC: read-out: minimum inhibitory concentration (MIC). The method, then:
as §1

Data set [6] relates to Ps. Maltophilia, 11D-1275. The data set is described as above. The class given is cell-based. To be noted: for MIC: Stenotrophomonas maltophilia, read-out: minimum inhibitory concentration (MIC). The method, then:
as §1

In data set [7] the test system is S. epidermidis, 56500. The description is as above. To be noted: for MIC: Staphylococcus epidermidis, read-out: minimum inhibitory concentration (MIC). The class given is cell-based. How it is done: as §1
In data set [8] the test system is Pr. Mirabilis, IFO-3849. The description is as above. The class given is cell-based. Conditions: for MIC: Proteus mirabilis, IFO3849, read-out: minimum inhibitory concentration (MIC). How it is done: as §1
Data set [9] relates to Str. Faecalis, ATCC-19433. The data set is described as above. Conditions: for MIC: Enterococcus faecalis, ATCC19433, read-out: minimum inhibitory concentration (MIC). The class given is cell-based. How it is done:
as §1

Data set [10] deals with Ps. Aeruginosa, 32104. The data set is described as above. The class given is cell-based. Conditions: for MIC: Pseudomonas aeruginosa, read-out: minimum inhibitory concentration (MIC). How it is done:
as §1

Data set [11] has as its system S. pneumoniae, J24. The description is as above. The class given is cell-based. To be noted: for MIC: Streptococcus pneumoniae, read-out: minimum inhibitory concentration (MIC). How it is done: as §1
Data set [12] relates to S. flexneli, 2A 5503. Described as above. To be noted: for MIC: read-out: minimum inhibitory concentration (MIC); for minimum inhibitory concentration (MIC): S. flexneli, 2A 5503. The class given is cell-based. The method, then:
as §1

For data set [13], the system named is E. coil, NIHJ. The description is as above. The class given is cell-based. Conditions: for MIC: read-out: minimum inhibitory concentration (MIC). The method, then: as §1
Data set [14] relates to Ser. Marcescens, 10100. Described as above. The class given is cell-based. To be noted: for MIC: Serratia marcescens, read-out: minimum inhibitory concentration (MIC). How it is done: as §1

`Nc1c(F)c(N2CC3CC4CC4(N)C3C2)c(F)c2c1c(=O)c(C(=O)O)cn2C1CC1` (stereo not drawn) [Example 1, 5-Amino-7-(1-amino-4-azatricyclo[6.1.0.0^2,6]-nonan-4-yl)-1-cyclopropyl-6,8-difluoro-1,4-dihydro-4-oxoquinoline-3-carboxylic Acid]: the melting point is 197 to 202 °C (dec.). Further, the MIC in [1] came out at 0.2 µg/mL (≈ 0.48 µM). Further, the MIC in data set [2] amounted to 0.006 µg/mL (≈ 0.0144 µM). The MIC in [3] amounted to 0.1 µg/mL (≈ 0.24 µM). Moreover, in [4], the MIC came out at 0.1 µg/mL (≈ 0.24 µM). Moreover, in [5], the MIC is ≤ 0.003 µg/mL. In addition, the MIC in [6] stood at 0.05 µg/mL (≈ 0.12 µM). The MIC in data set [7] came to 0.006 µg/mL (≈ 0.0144 µM). For the same molecule, in [8], the MIC is 0.05 µg/mL (≈ 0.12 µM). Also, the MIC in data set [9] was determined as 0.025 µg/mL (≈ 0.06 µM). Further, the MIC in [10] worked out at 0.2 µg/mL (≈ 0.48 µM). The MIC in data set [11] is ≤ 0.003 µg/mL. For the same molecule, the MIC in data set [12] is ≤ 0.003 µg/mL. For the same molecule, the MIC in data set [13] was ≤ 0.003 µg/mL. Also, in [14], the MIC is 0.1 µg/mL (≈ 0.24 µM).

`C[C@H]1COc2c(N3C[C@H]4CC5C[C@]5(N)[C@H]4C3)c(F)cc3c(=O)c(C(=O)O)cn1c23` (stereo partly drawn) [Example 2, 10-{(1R,2R,6S)-1-Amino-4-azatricyclo[6.1.0.0^2,6]nonan-4-yl}-9-fluoro-2,3-dihydro-3-(S)-methyl-7-oxo-7H-pyrido[1.2.3-de][1,4]benzoxazine-6-carboxylic Acid]: the “minimum inhibitory concentration (MIC)” value in [1] stood at 0.05 µg/mL (≈ 0.125 µM); in data set [2] it was 0.013 µg/mL (≈ 0.0325 µM); in [3], 0.025 µg/mL (≈ 0.0626 µM); in data set [4], 0.20 µg/mL (≈ 0.501 µM); in data set [5], 0.006 µg/mL (≈ 0.015 µM); in data set [6], 0.20 µg/mL (≈ 0.501 µM). For the same molecule, the “minimum inhibitory concentration (MIC)” value in data set [7] is 0.025 µg/mL (≈ 0.0626 µM); in data set [8], 0.10 µg/mL (≈ 0.25 µM); in [9] it was 0.05 µg/mL (≈ 0.125 µM); in [10], 0.20 µg/mL (≈ 0.501 µM); in data set [11] it was 0.013 µg/mL (≈ 0.0325 µM); in [12] it was 0.006 µg/mL (≈ 0.015 µM). In addition, the results for the “minimum inhibitory concentration (MIC)” value in data set [13] and in data set [14] were “≦0.003 μg/ml” and 0.05 µg/mL (≈ 0.125 µM), respectively.

Turning to `COc1c(N2CC3CC4CC4(N)C3C2)c(F)cc2c(=O)c(C(=O)O)cn([C@@H]3C[C@@H]3F)c12` (stereo partly drawn) [Example 5, 7-{1-Amino-4-azatricyclo[6.1.0.0^2,6]nonan-4-yl}-6-fluoro-1-[2-(S)-fluoro-1-(R)-cyclopropyl]-1,4-dihydro-8-methoxy-4-oxoquinoline-3-carboxylic Acid], the melting point was 146 to 159 °C (dec.). Further, the MIC in [1] amounted to 0.05 µg/mL (≈ 0.116 µM). The MIC in [2] was ≤ 0.003 µg/mL. Moreover, the MIC in data set [3] amounted to 0.006 µg/mL (≈ 0.0139 µM). Also, the MIC in [4] worked out at 0.013 µg/mL (≈ 0.0301 µM). The MIC in data set [5] is ≤ 0.003 µg/mL. Further, the MIC in data set [6] worked out at 0.05 µg/mL (≈ 0.116 µM). For the same molecule, the MIC in data set [7] is ≤ 0.003 µg/mL. Moreover, in data set [8], the MIC was ≤ 0.003 µg/mL. The MIC in [9] stood at 0.025 µg/mL (≈ 0.0579 µM). The MIC in data set [10] came out at 0.1 µg/mL (≈ 0.232 µM). Also, the MIC in data set [11] was ≤ 0.003 µg/mL. In addition, in data set [12], the MIC was ≤ 0.003 µg/mL. Also, the MIC in [13] is ≤ 0.003 µg/mL. For the same molecule, the MIC in data set [14] was 0.05 µg/mL (≈ 0.116 µM).

As to `Cc1c(N2CC3CC4CC4(N)C3C2)c(F)c(N)c2c(=O)c(C(=O)O)cn([C@@H]3C[C@@H]3F)c12` (stereo partly drawn) [Example 6, 5-Amino-7-{1-amino-4-azatricyclo[6.1.0.0^2,6]nonan-4-yl}-6-fluoro-1-[2-(S)-fluoro-1-(R)-cyclopropyl]-1,4-dihydro-8-methyl-4-oxoquinoline-4-carboxylic Acid], the “minimum inhibitory concentration (MIC)” value was 0.025 µg/mL (≈ 0.0581 µM) in [1]; “≦0.003 μg/ml” in [2]; 0.025 µg/mL (≈ 0.0581 µM) in [3]; 0.05 µg/mL (≈ 0.116 µM) in data set [4]; “≦0.003 μg/ml” in data set [5]; 0.025 µg/mL (≈ 0.0581 µM) in data set [6]. For the same molecule, the “minimum inhibitory concentration (MIC)” value in data set [7] was “≦0.003 μg/ml”; in data set [8], 0.025 µg/mL (≈ 0.0581 µM); in data set [9], 0.013 µg/mL (≈ 0.0302 µM); in data set [10], 0.10 µg/mL (≈ 0.232 µM); in data set [11], “≦0.003 μg/ml”; in data set [12] it was “≦0.003 μg/ml”. Moreover, the “minimum inhibitory concentration (MIC)” value in data set [13] is “≦0.003 μg/ml”; in data set [14] it was 0.05 µg/mL (≈ 0.116 µM).

Take `Cc1c(N2CC3CC4CC4(N)C3C2)c(F)cc2c(=O)c(C(=O)O)cn([C@@H]3C[C@@H]3F)c12` (stereo partly drawn) [Example 7, 7-(1-Amino-4-azabicyclo[6.1.0.0^2,6]nonan-4-yl)-6-fluoro-1-[2-(S)-fluoro-1-(R)-cyclopropyl]-8-methyl-1,4-dihydro-4-oxoquinoline-3-carboxylic Acid]: the “minimum inhibitory concentration (MIC)” value in [1] was 0.025 µg/mL (≈ 0.0602 µM); in data set [2] it was “≦0.003 μg/ml”; in data set [3] it was “≦0.003 μg/ml”; in data set [4] it was 0.013 µg/mL (≈ 0.0313 µM); in data set [5] it was “≦0.003 μg/ml”; in [6], 0.025 µg/mL (≈ 0.0602 µM). The “minimum inhibitory concentration (MIC)” value in [7] was “≦0.003 μg/ml”; in [8] it was 0.013 µg/mL (≈ 0.0313 µM); in data set [9], 0.013 µg/mL (≈ 0.0313 µM); in data set [10] it was 0.05 µg/mL (≈ 0.12 µM); in data set [11], “≦0.003 μg/ml”; in [12] it was “≦0.003 μg/ml”. The “minimum inhibitory concentration (MIC)” value in [13] was “≦0.003 μg/ml”; in [14], 0.025 µg/mL (≈ 0.0602 µM).

As usually defined, the melting point is the temperature of the solid-liquid transition.
